According to PubChem BioAssay (NCI):
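Each compound was tested at five concentrations against cells in 96-well plates for 48 hours. GI50: concentration for 50% inhibition of growth. TGI: concentration producing complete growth inhibition.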 Where a SMILES comes first, the peptide text is derived from it. The star is where a group is joined. Cbz = O=C(OCc1ccccc1)*; Boc = CC(C)(C)OC(=O)*; tBu = CC(C)(C)*

Legend:
Experiment in all cases: DTP human tumour cell line panel, 48 h
EKVX NSCLC = system: EKVX NSCLC
NCI-H23 lung = system: NCI-H23 lung
UACC-62 melanoma = system: UACC-62 melanoma
HL-60(TB) leukemia = system: HL-60(TB) leukemia
MALME-3M melanoma = system: MALME-3M melanoma
IGROV1 ovarian = system: IGROV1 ovarian
HCT-116 colon = system: HCT-116 colon
HOP-92 NSCLC = system: HOP-92 NSCLC
MDA-MB-435 = system: MDA-MB-435
TK-10 renal = system: TK-10 renal

Structure (SMILES) | TGI (EKVX NSCLC) [µM] | TGI (NCI-H23 lung) [µM] | TGI (UACC-62 melanoma) [µM] | TGI (HL-60(TB) leukemia) [µM] | TGI (MALME-3M melanoma) [µM] | TGI (IGROV1 ovarian) [µM] | TGI (HCT-116 colon) [µM] | TGI (HOP-92 NSCLC) [µM] | TGI (MDA-MB-435) [µM] | TGI (TK-10 renal) [µM] | GI50 (HCT-116 colon) [µM] | GI50 (MDA-MB-435) [µM]
O=c1c2cc(S(=O)(=O)O)ccc2nc(COc2ccc(Oc3ccc(Cl)cc3Cl)cc2)n1-c1ccc(Cl)cc1Oc1c(Cl)cccc1Cl | 40.4 | 57.1 | 48.9 | > 100 | > 100 | > 100 | 67.8 | 47.1 | 66.5 | > 100 | – | –
CC(=O)OCCOCn1cnc2c(Cl)nc(Cl)nc21 | 7.83 | 36.1 | 30.1 | 6.21 | 33.3 | 30.6 | 32 | 3.37 | 33.5 | > 100 | – | –
CC(OC(C)(C)C)C(NC(=O)C(CCCCNC(=O)OC(C)(C)C)NC(=O)C(Cc1c[nH]c2ccccc12)NC(=O)C(Cc1ccccc1)NC(=O)OCc1ccccc1)C(=O)NC(Cc1ccccc1)C(=O)O (stereo not drawn) (Cbz-FWK(Boc)T(tBu)F-OH; configuration not given here) | > 100 | > 100 | 67.9 | > 100 | > 100 | 98.9 | > 100 | > 100 | > 100 | > 100 | – | –
Cc1ccc(NC(=S)N/N=C(/c2ccccc2)c2ccccn2)cc1 | 12.9 | 26.7 | 10.1 | 2.26 | 9.23 | 18.9 | 14 | 8.82 | 14.7 | 2.44 | – | –
CC1ON2CCCC2[C@H]1C(=O)N1C2CC3CCC2(CS1(=O)=O)C3(C)C (stereo partly drawn) | > 100 | > 100 | > 100 | > 100 | > 100 | > 100 | > 100 | > 100 | > 100 | > 100 | – | –
N#Cc1nc(C2=C(Cl)c3ccccc3OC2)[nH]c1C#N | > 100 | 69.1 | 64.3 | 70.7 | – | > 100 | – | 31 | – | > 100 | – | –
C=C1CCC23CC(CC[C@@H]2[C@@]12C[C@@H](c1ccoc1)OC2=O)OC3=O (stereo partly drawn) | > 100 | > 100 | > 100 | > 100 | > 100 | > 100 | > 100 | > 100 | – | > 100 | – | –
Cc1ccc(NC(=O)c2cccc(OP(=O)(O)Nc3ccc(C)cc3)c2)cc1 | > 100 | > 100 | > 100 | > 100 | > 100 | > 100 | > 100 | > 100 | > 100 | > 100 | – | –
COc1ccc(-c2cc(=O)c3ccccc3[nH]2)c(OC)c1 | > 100 | > 100 | > 100 | > 100 | > 100 | > 100 | > 100 | – | – | > 100 | – | –
Cc1cc(=O)n2nc(CN3CCCCC3)sc2n1 | > 100 | > 100 | > 100 | > 100 | > 100 | > 100 | > 100 | > 100 | > 100 | > 100 | – | –
COc1cc(OC)c2c(=O)c(OC)c(-c3ccc4c(c3)OCO4)oc2c1 | > 100 | 64 | 72 | > 100 | > 100 | > 100 | > 100 | – | > 100 | > 100 | – | –
O=C(O)[C@@H]1CSCN1C(=O)[C@@H]1CCC(=S)N1 | – | > 100 | – | > 100 | > 100 | > 100 | – | – | > 100 | > 100 | – | –
CN(/N=C/c1ccc(OCc2cccc(COc3ccc(C=O)cc3)n2)cc1)c1cnn(-c2ccc(Cl)cc2Cl)c(=O)c1Cl | > 100 | > 100 | > 100 | > 100 | > 100 | > 100 | > 100 | – | > 100 | > 100 | – | –
CC12CCC([C@H](C(O)C3CCCCC3)C1=O)C2(C)C (stereo partly drawn) | > 100 | > 100 | > 100 | 42.4 | – | > 100 | > 100 | > 100 | > 100 | > 100 | – | –
CCOP(=O)(O)C1C(CO)OC(n2ccc(=O)[nH]c2=O)C1O (stereo not drawn) | > 100 | – | > 100 | > 100 | > 100 | > 100 | > 100 | > 100 | – | > 100 | – | –
COc1ccc(O)c(/C(C)=N/NC(=S)N(C)C)c1 | > 100 | > 88.5 | > 71.6 | > 100 | > 100 | > 100 | > 100 | > 100 | > 100 | – | – | –
Cc1[nH]n(C2=NCCN2)c(=O)c1Cc1ccccc1 | > 100 | > 100 | > 100 | > 100 | > 100 | > 100 | > 100 | > 100 | > 100 | > 100 | – | –
CC1(C)CC(=O)C(/C=N/c2nc(-c3ccccc3)cs2)=C(O)C1 | > 100 | > 100 | – | > 100 | – | 87.9 | > 100 | > 100 | 73.6 | > 100 | – | –
O=C(N/N=C\c1cccc(O)c1)c1ccncc1 | > 100 | > 100 | > 100 | – | > 100 | > 100 | > 100 | > 100 | > 100 | > 100 | – | –
CCNc1cc2c(cc1O)CC[C@@H]1[C@@H]2CC[C@]2(C)[C@@H](O)CC[C@@H]12 | 34.8 | 28.7 | > 35 | 8.12 | 17.5 | 33.2 | 18.7 | 22.4 | 0.712 | 34 | 3.1 | 0.0515
COc1ccc(N2C(=O)c3cc(C)cnc3S2(=O)=O)cc1 | > 100 | > 100 | > 100 | > 100 | > 100 | > 100 | > 100 | > 100 | > 100 | > 100 | – | –
CCOC(=O)C(Cc1cn(S(=O)(=O)c2ccccc2)c2ccccc12)(NC(C)=O)C(=O)OCC | – | > 100 | > 100 | 41.5 | > 100 | > 100 | 95.8 | 67.1 | – | > 100 | – | –

Structure (SMILES) | TGI (EKVX NSCLC) [µM] | TGI (NCI-H23 lung) [µM] | TGI (UACC-62 melanoma) [µM] | TGI (HL-60(TB) leukemia) [µM] | TGI (MALME-3M melanoma) [µM] | TGI (IGROV1 ovarian) [µM] | TGI (HCT-116 colon) [µM] | TGI (HOP-92 NSCLC) [µM] | TGI (MDA-MB-435) [µM] | TGI (TK-10 renal) [µM] | GI50 (HCT-116 colon) [µM] | GI50 (MDA-MB-435) [µM]
CNc1nc2n(CCO)c(-c3ccccc3)c(-c3ccccc3)nc-2c(=O)n1 | > 50 | > 50 | > 50 | – | > 50 | > 50 | > 50 | > 50 | > 50 | > 50 | – | –
COc1cccc(/C=C2\C(=O)N(C(=O)c3ccc(NC(C)=O)cc3)N=C2C)c1 | > 100 | > 100 | – | – | > 100 | – | > 100 | – | – | > 100 | – | –
COC(=O)C1=C(C(=O)OC)c2cc(OC)ccc2C(C(=S)N(C)C)S1 (stereo not drawn) | > 100 | > 100 | > 100 | – | > 100 | > 100 | > 100 | > 100 | > 100 | > 100 | – | –
O=c1oc2cc(O)ccc2c(O)c1C(c1ccccc1F)c1c(O)c2ccc(O)cc2oc1=O | > 100 | > 100 | > 100 | 43.7 | – | > 100 | > 100 | > 100 | > 100 | > 100 | – | –
C=CCc1cc(-c2cc(CC=C)c(O)c(CNCCCl)c2)cc(CNCCCl)c1O | – | 31.3 | 28.3 | 44.8 | 39.5 | 51.4 | 34.6 | 31.2 | – | 57.5 | – | –
O=C(O)Cc1cccc2c1OC(c1ccccc1)C(Cl)(C(=O)c1ccccc1)C2=O (stereo not drawn) | 50 | 33.1 | – | 28 | 34.9 | 28.9 | 29.4 | – | 30.6 | 37.2 | – | –
c1ccc2c(c1)nc1n2CNC1 | > 100 | > 100 | > 100 | > 100 | – | > 100 | > 100 | > 100 | > 100 | > 100 | – | –
CC1=CC(=O)N(n2c(Cc3ccccc3)n[nH]c2=O)C1=O | > 100 | > 100 | > 100 | – | > 100 | > 100 | > 100 | > 100 | > 100 | > 100 | – | –
Cc1cc(C)n(C2OC(CO)C(O)C(O)C2O)c(=S)c1C#N (stereo not drawn) | – | > 100 | > 100 | > 100 | > 100 | > 100 | > 100 | > 100 | > 100 | > 100 | – | –
COC/C=C\[C@]1(O)CCCC[C@@H]1CC(OC)OC | > 100 | > 100 | > 100 | 81.8 | > 100 | > 100 | – | > 100 | > 100 | > 100 | – | –
COc1cc2c(cc1OC)CCc1cc(OC)c(OC)cc1CC2 | > 100 | > 100 | > 100 | – | > 100 | > 100 | > 100 | > 100 | > 100 | > 100 | – | –
c1csc(-c2cc(-c3cccs3)c(-c3ccsc3)s2)c1 | > 100 | > 100 | > 100 | > 100 | > 100 | > 100 | > 100 | – | > 100 | > 100 | – | –
COc1cc(O)c2c(c1)OCC(Cc1ccc(O)cc1)C2=O (stereo not drawn) | – | > 100 | > 100 | > 100 | > 100 | > 100 | > 100 | > 100 | > 100 | > 100 | – | –
CC(=O)N[C@@H](Cc1ccc(O)cn1)C(=O)NCc1cccc(Cl)c1 | > 100 | > 100 | > 100 | > 100 | – | > 100 | > 100 | – | > 100 | > 100 | – | –
O=c1[nH]c(Nc2nc3ccccc3[nH]2)nc2c1CCC2 | – | > 100 | > 100 | > 100 | > 100 | > 100 | > 100 | > 100 | > 100 | > 100 | – | –
N#Cc1c(-c2ccccc2)cc(Nc2cccc(C(F)(F)F)c2)n2c1nc1ccccc12 | 10 | 3.63 | – | – | 8.32 | – | 3.52 | 0.769 | 17.1 | 17.8 | – | –
CC(=O)OC1(C)C=CC(=O)C=C1 | > 100 | 75.2 | 35.7 | > 100 | – | 31.6 | > 100 | > 100 | > 100 | 49.8 | – | –
CN1C2CCC1CC(CCNC(c1ccccc1)c1ccccc1)C2 (stereo not drawn) | > 100 | > 100 | – | > 100 | 31.4 | > 100 | > 100 | 43.2 | 21.4 | 55 | – | –
Cc1nn(C(=O)Cc2ccccc2)c2c1C(c1ccc(N(C)C)cc1)SC(N)=N2 (stereo not drawn) | > 100 | > 100 | > 100 | > 100 | > 100 | > 100 | > 100 | – | > 100 | > 100 | – | –
COc1cc(OC)cc(-c2nc3cc(F)ccc3s2)c1 | 43.5 | 28.4 | 41.7 | – | > 100 | 43.6 | 38.8 | – | > 100 | 33.2 | – | –
Cc1ccc(N=Nc2c(C)c(C#N)c(=S)n(C3OC(CO)C(O)C(O)C3O)c2C)cc1 (stereo not drawn) | – | > 100 | 29 | > 100 | 42.7 | > 100 | 62.9 | 49.3 | 81.2 | > 100 | – | –
Cc1ccc(-c2c3nc(c(-c4ccc(C)cc4)c4ccc([nH]4)c(-c4ccc(OCC5COC(C)(C)O5)cc4)c4nc(c(-c5ccc(C)cc5)c5ccc2[nH]5)C=C4)C=C3)cc1 (stereo not drawn) | > 31.6 | > 31.6 | – | – | > 31.6 | > 31.6 | > 31.6 | > 100 | > 31.6 | > 31.6 | – | –
